The target in experiment [1] is T1, human CD73 (Homo sapiens, UniProt P21589).
T1 construct: purchased R&D Systems 5795-EN-010
T1 sequence (P21589 27-549): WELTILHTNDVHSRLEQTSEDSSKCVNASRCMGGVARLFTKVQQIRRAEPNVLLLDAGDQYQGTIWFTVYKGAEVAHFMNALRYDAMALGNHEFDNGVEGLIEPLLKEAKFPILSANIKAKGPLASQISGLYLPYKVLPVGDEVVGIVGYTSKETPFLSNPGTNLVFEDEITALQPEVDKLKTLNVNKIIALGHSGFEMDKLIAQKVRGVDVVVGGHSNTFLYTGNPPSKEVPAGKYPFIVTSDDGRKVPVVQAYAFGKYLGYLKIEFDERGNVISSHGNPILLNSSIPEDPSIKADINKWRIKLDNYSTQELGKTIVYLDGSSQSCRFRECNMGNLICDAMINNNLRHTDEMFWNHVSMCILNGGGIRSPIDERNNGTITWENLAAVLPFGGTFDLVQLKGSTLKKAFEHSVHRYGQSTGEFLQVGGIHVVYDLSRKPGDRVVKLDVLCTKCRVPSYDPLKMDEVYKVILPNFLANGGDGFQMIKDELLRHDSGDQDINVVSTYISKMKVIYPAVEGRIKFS
Briefly: Inhibition of 5′-Nucleotidase Activity of CD73 (Assay 1). Format: biochemical. To be noted: human CD73 4 ng/ml, 50 μM CMP, 20 min at RT, malachite green readout; read-out: Assay 1: IC50, inhibition of 5′-nucleotidase activity of CD73. The gist of the method:
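Human CD73 (4 ng/ml final) was incubated with 50 μM CMP in 25 mM Tris-HCl pH 7.4, 0.005% Brij-35 for 20 min at RT. Reactions were stopped with malachite green reagent and absorbance was read at 620 nm. IC50 came from a 4-parameter logistic fit.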

The target of experiment [2] is T2, CD73 on U138 neuroglioma cells (Homo sapiens, UniProt P21589).
T2 construct: U138 neuroglioma cells, which express CD73 on their surface; endogenous in cells; host or cells: U138 neuroglioma cells (ATCC)
T2 sequence (P21589 27-549): T1 sequence (P21589 27-549)
Briefly: Inhibition of Ecto-5′-Nucleotidase Activity in U138 Neuroglioma Cells (Assay 2). Format: cell-based. To be noted: 50 μM CMP, 2 hr at 37° C., malachite green readout, read-out: Assay 2: IC50, inhibition of ecto-5′-nucleotidase activity in U138 neuroglioma cells. The gist of the method:
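Whole-cell CD73 activity in U138 human neuroglioma cells seeded the day before, washed free of phosphate, then given test compound dilutions with 50 μM CMP in HEPES-buffered saline, pH 7.4, DMSO ≤0.1%. Incubated 2 hr at 37° C; released inorganic phosphate in supernatant measured by malachite green; IC50 by nonlinear regression.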

SMILES strings stand for the structures.

What is called IC50 is the concentration needed to halve the response being measured. In the case of `CCOC(=O)[C@H](OC[C@H]1O[C@@H](n2cnc3c(N)nc(CC(C)C)nc32)[C@H](O)[C@@H]1O)P(=O)(O)O` (single isomer, unassigned) [Example 46], the half-inhibitory concentration (IC50) in experiment [1] and in experiment [2] was 100 to 1000 nM each time.
On to `CCOC(=O)[C@H](OC[C@H]1O[C@@H](n2cnc3c(N)nc(-c4ncco4)nc32)[C@H](O)[C@@H]1O)P(=O)(O)O` (single isomer, unassigned) [Example 49], for which the IC50 was < 100 nM in experiment [1] and 100 to 1000 nM in experiment [2].
In the case of `CCOC(=O)[C@@H](OC[C@H]1O[C@@H](n2cnc3c(N)nc(-c4ncco4)nc32)[C@H](O)[C@@H]1O)P(=O)(O)O` (single isomer, unassigned) [Example 49a], the IC50 was 100 to 1000 nM in experiment [1] and > 1000 nM in experiment [2].
The corresponding values for `CCOC(=O)[C@H](OC[C@H]1O[C@@H](n2cnc3c(N)nc(C4CC4)nc32)[C@H](O)[C@@H]1O)P(=O)(O)O` (single isomer, unassigned) [Example 50] are 100 to 1000 nM and > 1000 nM.
Turning to `CCOC(=O)[C@H](OC[C@H]1O[C@@H](n2cnc3c(N)nc([C@@H]4NCCO4)nc32)[C@H](O)[C@@H]1O)P(=O)(O)O` (single isomer, unassigned) [Example 51], the 50% inhibitory concentration (IC50) in experiment [1] was 100 to 1000 nM; in experiment [2], > 1000 nM.
The corresponding values for `CCOC(=O)[C@H](OC[C@H]1O[C@@H](n2cnc3c(N)nc([C@H]4NCCO4)nc32)[C@H](O)[C@@H]1O)P(=O)(O)O` (single isomer, unassigned) [Example 51a] are 100 to 1000 nM and > 1000 nM.
The corresponding values for `CCOC(=O)[C@@H](OC[C@H]1O[C@@H](n2cnc3c(N)nc(F)nc32)[C@H](O)[C@@H]1O)P(=O)(O)O` (single isomer, unassigned) [Example 52] are < 100 nM and 100 to 1000 nM.
As to `CCOC(=O)[C@H](OC[C@H]1O[C@@H](n2cnc3c(N)nc(F)nc32)[C@H](O)[C@@H]1O)P(=O)(O)O` (single isomer, unassigned) [Example 52a], the values for the concentration for half-maximal inhibition (IC50) in experiment [1] and in experiment [2] were 100 to 1000 nM and > 1000 nM, respectively.
Take `CC(C)(C)OC(=O)[C@H](OC[C@H]1O[C@@H](n2cnc3c(N)nc(C#N)nc32)[C@H](O)[C@@H]1O)P(=O)(O)O` (single isomer, unassigned) [Example 54]: the IC50 in experiment [1] and in experiment [2] was < 100 nM throughout.
For `CC(C)(C)OC(=O)[C@@H](OC[C@H]1O[C@@H](n2cnc3c(N)nc(C#N)nc32)[C@H](O)[C@@H]1O)P(=O)(O)O` (single isomer, unassigned) [Example 54b], the figures for the IC50 in experiment [1] and in experiment [2] were < 100 nM and 100 to 1000 nM, respectively.
`Nc1nc(Cl)nc2c1ncn2[C@@H]1O[C@H](COC(C(=O)O)P(=O)(O)O)[C@@H](O)[C@H]1O` (single isomer, unassigned) [Example 61]: the half-inhibitory concentration (IC50) in experiment [1] and in experiment [2] was < 100 nM in each case.
For the compound `Cc1nc(N)c2ncn([C@@H]3O[C@H](COC(C(=O)O)P(=O)(O)O)[C@@H](O)[C@H]3O)c2n1` (single isomer, unassigned) [Example 69a], the IC50 in experiment [1] is 100 to 1000 nM; in experiment [2], > 1000 nM.
For `CCOC(=O)[C@H](OC[C@H]1C[C@@H](n2cnc3cccc(Cl)c3c2=O)[C@H](O)[C@@H]1O)P(=O)(O)O` (single isomer, unassigned) [Example 70] the same measures were 100 to 1000 nM and > 1000 nM.
For the compound `CCOC(=O)[C@H](OC[C@H]1C[C@@H](n2cnc3cccc(Br)c3c2=O)[C@H](O)[C@@H]1O)P(=O)(O)O` (single isomer, unassigned) [Example 72], the values for the half-maximal inhibitory concentration (IC50) in experiment [1] and in experiment [2] were 100 to 1000 nM and > 1000 nM, respectively.
For `CCOC(=O)C(OC[C@H]1C[C@@H](n2cnc3c(N)nc(Cl)nc32)[C@H](O)[C@@H]1O)P(=O)(O)O` (single isomer, unassigned) [Example 76], the IC50 in experiment [1] and in experiment [2] was < 100 nM in each case.
On to `CCOC(=O)C(OC[C@H]1C[C@@H](n2cnc3c(N)nc(Cl)nc32)[C@H](O)[C@@H]1O)P(=O)(O)O` (single isomer, unassigned) [Example 76a], for which the concentration for half-maximal inhibition (IC50) in experiment [1] and in experiment [2] was 100 to 1000 nM each time.
With `CCOC(=O)C(OC[C@H]1C[C@@H](n2nnc3c(N)nc(Cl)nc32)[C@H](O)[C@@H]1O)P(=O)(O)O` (single isomer, unassigned) [Example 77], the half-inhibitory concentration (IC50) in experiment [1] was < 100 nM; in experiment [2], 100 to 1000 nM.
The corresponding values for `CCOC(=O)C(OC[C@H]1C[C@@H](n2nnc3c(N)nc(Br)nc32)[C@H](O)[C@@H]1O)P(=O)(O)O` (single isomer, unassigned) [Example 77a] are < 100 nM and 100 to 1000 nM.
Take `CC(C)(C)OC(=O)C(OC[C@H]1C[C@@H](n2cnc3c(N)nc(Cl)nc32)[C@H](O)[C@@H]1O)P(=O)(O)O` (single isomer, unassigned) [Example 78]: the IC50 in experiment [1] was < 100 nM; in experiment [2], 100 to 1000 nM.
For `CC(C)(C)OC(=O)C(OC[C@H]1C[C@@H](n2cnc3c(N)nc(Cl)nc32)[C@H](O)[C@@H]1O)P(=O)(O)O` (single isomer, unassigned) [Example 78a], the figures for the IC50 in experiment [1] and in experiment [2] were 100 to 1000 nM and > 1000 nM, respectively.
For `CCOC(=O)[C@](CC(=O)O)(OC[C@H]1O[C@@H](n2cnc3c(N)nc(F)nc32)[C@H](O)[C@@H]1O)P(=O)(O)O` (single isomer, unassigned) [Example 79], the half-maximal inhibitory concentration (IC50) was 100 to 1000 nM in experiment [1] and > 1000 nM in experiment [2].
With `CCN(CC)C(=O)[C@@H](OC[C@H]1O[C@@H](n2cnc3c(N)nc(Cl)nc32)[C@H](O)[C@@H]1O)P(=O)(O)O` (single isomer, unassigned) [Example 82], the IC50 in experiment [1] was < 100 nM; in experiment [2], 100 to 1000 nM.
As to `CCN(CC)C(=O)[C@H](OC[C@H]1O[C@@H](n2cnc3c(N)nc(Cl)nc32)[C@H](O)[C@@H]1O)P(=O)(O)O` (single isomer, unassigned) [Example 82a], the half-inhibitory concentration (IC50) is < 100 nM in experiment [1] and 100 to 1000 nM in experiment [2].
The corresponding values for `CCOC(=O)C(OC[C@H]1O[C@@H](n2cnc3ccc(Cl)nc32)[C@H](O)[C@@H]1O)P(=O)(O)O` (single isomer, unassigned) [Example 87] are < 100 nM and 100 to 1000 nM.
With `CNc1nc(Cl)nc2c1ncn2[C@@H]1O[C@H](COC(C(F)(F)F)P(=O)(O)O)[C@@H](O)[C@H]1O` (single isomer, unassigned) [Example 100], the IC50 was 100 to 1000 nM in experiment [1] and < 100 nM in experiment [2].
As to `CNc1nc(Cl)nc2c1ncn2[C@@H]1O[C@H](COC(C(F)(F)F)P(=O)(O)O)[C@@H](O)[C@H]1O` (single isomer, unassigned) [Example 100a], the IC50 in experiment [1] and in experiment [2] was < 100 nM in each case.
For `CNc1nc(Cl)nc2c1ncn2[C@@H]1O[C@H](COC(C)(C(=O)O)C(=O)O)[C@@H](O)[C@H]1O` [Example 2, (2-(((2R,3S,4R,5R)-5-(2-chloro-6-(methylamino)-9H-purin-9-yl)-3,4-dihydroxytetrahydrofuran-2-yl)methoxy)-2-methylmalonic Acid)], the IC50 in experiment [1] and in experiment [2] was 100 to 1000 nM each time.
Take `Nc1nc(Cl)nc2c1ncn2[C@@H]1O[C@H](COC(C(=O)O)C(=O)O)[C@@H](O)[C@H]1O` [Example 3, 2-(((2R,3S,4R,5R)-5-(6-amino-2-chloro-9H-purin-9-yl)-3,4-dihydroxytetrahydrofuran-2-yl)methoxy)malonic acid]: the IC50 in experiment [1] was < 100 nM; in experiment [2] it was 100 to 1000 nM.
Take `Nc1nc(Cl)nc2c1ncn2[C@@H]1O[C@H](COC(Cc2ccc(F)cc2)(C(=O)O)C(=O)O)[C@@H](O)[C@H]1O` [Example 4, 2-(((2R,3S,4R,5R)-5-(6-amino-2-chloro-9H-purin-9-yl)-3,4-dihydroxytetrahydrofuran-2-yl)methoxy)-2-(4-fluorobenzyl)malonic acid]: the 50% inhibitory concentration (IC50) in experiment [1] and in experiment [2] was < 100 nM throughout.
For `COCC(OC[C@H]1O[C@@H](n2cnc3c(N)nc(Cl)nc32)[C@H](O)[C@@H]1O)(C(=O)O)C(=O)O` [Example 5, 2-(((2R,3S,4R,5R)-5-(6-amino-2-chloro-9H-purin-9-yl)-3,4-dihydroxytetrahydrofuran-2-yl)methoxy)-2-(methoxymethyl)malonic acid], the half-inhibitory concentration (IC50) in experiment [1] and in experiment [2] was < 100 nM each time.

These data come from patent publication US10654884B2 (Vitae Pharmaceuticals, Inc., priority 2014, dated 2020).
